pIC50: −log10 of the molar value.

In patent US10800741B2 (ANCUREALL PHARMACEUTICAL (SHANGHAI) CO., LTD., priority 2017, dated 2020) one finds IC50 data, which are given here for one molecule.

What all share (format): cell-based
One assay relates to NCI-H460. Briefly: In vitro growth inhibition of PI3KCA amplified/mutant tumor cells NCI-H460. The following applies: Homo sapiens, NCI-H460, read-out: IC50 growth inhibition. The protocol:
(§1) Suspension culture cells were collected by centrifugation (1700 rpm, 3 minutes). The supernatant was discarded and the cells were counted. According to each cell growth cycle, different concentrations of cells were prepared (5˜10×10^4 cells per ml), and inoculated to 96-well plates (Corning), with 100 μl per well, and incubated overnight at 37° C., 5% CO2. The next day, the test compound was added to the cultured cells (2 wells in parallel). The final concentration of the solvent was less than 1/1,000. The cells were further cultured for 3 to 5 days and assayed by MTT.
(§2) The adherent cells were taken out from the cell culture medium, and immediately added to a freshly prepared complete medium containing 10% CCK8 (5% FBS), 100 ul per hole. The suspended cells were directly added to a CCK8 reagent until reaching a final concentration of 10% and cultured for 1 to 4 hours.
(§3) T=optical density of drug-treated cell wells−optical density of blank control wells; T0=optical density of cell wells before drug treatment−optical density of blank control wells; C=optical density of solvent control wells−optical density of blank control wells. […] The experiments were repeated 1 to 3 times and a statistical analysis of data was conducted.

In the next assay the test system is A2780. Briefly: In vitro growth inhibition of PI3KCA amplified/mutant tumor cells A2780. The following applies: Homo sapiens, A2780, read-out: IC50 growth inhibition. The protocol: as §1, §2, §3
A further assay concerns SK-OV-3. Briefly: In vitro growth inhibition of PI3KCA amplified/mutant tumor cells SK-OV-3. The conditions noted are these: Homo sapiens, SK-OV-3, read-out: IC50 growth inhibition. The protocol: as §1, §2, §3
In a further assay the test system is HCT116. Briefly: In vitro growth inhibition of PI3KCA amplified/mutant tumor cells HCT116. The following applies: Homo sapiens, HCT-116, read-out: IC50 growth inhibition. How it is done:
as §1, §2, §3

The test system of a further assay is KYSE70. Briefly: In vitro growth inhibition of PI3KCA amplified/mutant tumor cells KYSE70. The following applies: Homo sapiens, KYSE-70, read-out: IC50 growth inhibition. The protocol:
as §1, §2, §3

Another assay concerns HCC1954. Briefly: In vitro growth inhibition of PI3KCA amplified/mutant tumor cells HCC1954. The following applies: Homo sapiens, HCC1954, read-out: IC50 growth inhibition. The protocol:
as §1, §2, §3

In a further assay the test system is SW48. Briefly: In vitro growth inhibition of PI3KCA amplified/mutant tumor cells SW48. The following applies: Homo sapiens, SW48, read-out: IC50 growth inhibition. How it is done: as §1, §2, §3
In the next assay the test system is HGC-27. Briefly: In vitro growth inhibition of PI3KCA amplified/mutant tumor cells HGC-27. The following applies: Homo sapiens, HGC-27, read-out: IC50 growth inhibition. The protocol:
as §1, §2, §3

The next assay concerns AGS. Briefly: In vitro growth inhibition of PI3KCA amplified/mutant tumor cells AGS. The following applies: Homo sapiens, read-out: IC50 growth inhibition. How it is done: as §1, §2, §3

Consider `COc1c(OCCCN2CCOCC2)ccc2c1N=C(NC(=O)c1cnc(N)nc1)N1CCN=C21` [BAY 80-6946, reference compound], for which the pIC50 in the assay with NCI-H460 is 7.52; in the assay with A2780, 8.01; in the assay on SK-OV-3 it was 7.99; in the assay on HCT116, 7.19; in the assay with KYSE70, 7.71; in the assay on HCC1954 it was 8.17. Besides, the pIC50 with SW48 is 7.56; in the assay on HGC-27, 7.76; in the assay on AGS, 7.40.
